Data set [1] is described as follows: Acute toxicity (LD 50/30) by serial injection of graduated doses. Type of data set: in vivo. Conditions: mice and rabbits. As for the experimental part: A toxicological study was conducted in both mice and rabbits by serial injection of graduated doses and the acute toxicity of imidodiphosphonate (LD 50/30) was determined to be 45-50 mg imidodiphosphonic acid per kilogram body weight.

The conditions of data set [2]: rabbit, in vivo; cited from earlier work.

The text below walks through data of patent publication US3974268A, “Bone-seeking technetium-99m imidodiphosphonate complex” (priority 1975, dated 1976).

As for “imidodiphosphonic acid [imidodiphosphonate]”, the “acute toxicity (LD 50/30)” value in data set [1] is 45-50 mg imidodiphosphonic acid per kilogram body weight.

Turning to `O=P(O)(O)CN(CCN(CP(=O)(O)O)CP(=O)(O)O)CCN(CP(=O)(O)O)CP(=O)(O)O` (99mTc complex, metal not drawn) [DTPMP, Diethylene Triamino Penta (Methylene Phosphonate)], in data set [2], the “99mTc/85Sr ratio calculated from specific concentrations, Average Bone” value is 0.467; the “99mTc/85Sr ratio calculated from specific concentrations, Blood” value is given as 0.461; the “99mTc/85Sr ratio calculated from specific concentrations, Femur” value is 0.419; the “99mTc/85Sr ratio calculated from specific concentrations, Kidney” value is given as 3.82. Moreover, in data set [2], the “99mTc/85Sr ratio calculated from specific concentrations, Liver” value was 0.544; the “99mTc/85Sr ratio calculated from specific concentrations, Marrow” value was 0.547; the “99mTc/85Sr ratio calculated from specific concentrations, Muscle” value is given as 0.221; the “99mTc/85Sr ratio calculated from specific concentrations, Pelvis” value is 0.627. Moreover, in data set [2], the “99mTc/85Sr ratio calculated from specific concentrations, Spine” value is on record as 0.415 and the “99mTc/85Sr ratio calculated from specific concentrations, Tibia” value is on record as 0.384.
